Some results are limits rather than exact numbers.

Assay [1] has as its system HT-29 cells. As to the kind of experiment: Detection of cell proliferation activity by CCK8 method (HT-29). It counts as cell-based, human. The conditions noted are these: Homo sapiens, CCK8, 96 h. The text has this:
(§1) This assay can be used to examine the potency of compounds in inhibiting the proliferation of tumor cells (OVCAR3, HT-29, BT-549, HCT-116). A lower IC50 value indicates high potency of the compound as a KIF18A inhibitor in the following assay setup,
(§2) McCoy's 5A medium purchased from Sangon Biotech; CCK8 kit purchased from Beyotime; OVCAR3, HT-29, HCT-116, and BT-549 cells purchased from Shanghai Fuheng Biotechnology Co., Ltd.; multimode microplate reader (Thermo).
(§3) Cells at the logarithmic growth phase were taken, digested with a cell lysis buffer (trypsin), centrifuged, counted, and seeded into a 96-well plate at an appropriate cell density (BT549: 1500 cells/well in 1640 medium. HT-29 and HCT-116: 2000 cells/well in McCoy's 5A medium), with 180 μL per well, for a total of 60 wells. The surrounding wells were filled with an equal amount of PBS to prevent water evaporation from the edge wells. The next day after cell plating, the test compounds at different concentration gradients (with an initial final concentration of 10 μM, diluted in a 1:5 gradient to obtain 9 concentration gradients) were added to the wells. Three replicate wells were set up for each concentration point, and a corresponding DMSO negative control group was also set up. Detection: After 96 h of drug treatment, the test cell culture plate was removed from the incubator. All the liquid in the 96-well plate was aspirated, and 100 μL of medium containing 10% CCK8 solution was added to each well. The plate was then incubated at 37° C. for 2 h (the OD450 of the DMSO group reached 1.5 or more), and the absorbance at 450 nm was measured using a microplate reader
(§4) After the background value was subtracted from the measurement for each well, the inhibition rate was calculated. Inhibition Rate (%)=(1−Sample/Vehicle)×100. Sample is the luminescence value of the drug treatment group, and Vehicle is the luminescence value of the DMSO control group. A sigmoidal dose-survival rate curve was plotted using a non-linear regression model in the GraphPad Prism 7.0 software, and the IC50 values were calculated.

In assay [2] the test system is HCT-116 cells. As to the kind of experiment: Mitotic index analysis, pH3 expression in HCT-116 cells. It is filed as cell-based. The conditions noted are these: Homo sapiens, 24 h treatment. How it is done:
(§5) HCT-116 and HT-29 cells at the logarithmic growth phase were taken, digested with a cell lysis buffer (trypsin), centrifuged, counted, and seeded into a 96-well plate at an appropriate cell density (20000 cells/well), with 100 μL per well. The surrounding wells were filled with an appropriate amount of PBS to prevent water evaporation. The next day, the cells were treated with the compounds at different concentrations (with a starting concentration of 10 μM, 3-fold diluted to obtain 9 concentration gradients). After 24 h, the medium was aspirated, and the cells were washed twice with 100 μL of PBS. The cells were then fixed with 4% paraformaldehyde and incubated at room temperature for 15 min. The fixative solution was discarded, and the cells were washed with PBS. Then, 150 μL of specialized blocking solution (containing 1% Triton-100) was added to each well for blocking at room temperature for 2 h, and the plate was washed with PBS to remove excess blocking solution. Anti-phistone H3 (pH3) was diluted at a ratio of 1:1000 with a blocking solution containing 0.033% Triton-100, and a blank control group was set up. Then, incubation was performed at 4° C. overnight. The next day, the plate was washed twice with 1×PBST. Anti-rabbit-IgG (H+L) (CST) and DRAQ5 (Thermofisher) were each diluted at an appropriate ratio with a blocking solution containing 0.033% Triton-100 (secondary antibody: 1:2000; DRAQ5: 1:10000). Then, incubation was performed at room temperature for 2 h. The plate was washed twice with 1×PBST and once with PBS. Fluorescence signals at 700 nm and 800 nm were detected using a Li—COR Odyssey two-color near-infrared laser imager. Calculation was performed as follows: pH3 expression (%)=(Cmpd dose/DMSO control)×100. Cmpd dose is the value of the drug treatment group, and DMSO control is the value of the DMSO control group. The EC50 values were determined by fitting using the GraphPad Prism 7.0 software.

The test system of assay [3] is OVCAR3 cells. As to the kind of experiment: Detection of cell proliferation activity by CCK8 method (OVCAR3). It is filed as cell-based. The conditions noted are these: Homo sapiens, OVCAR-3, CCK8, 96 h.
Text: as §1, §2, §3, §4

In assay [4] the test system is HCT-116 cells. Description: Detection of cell proliferation activity by CCK8 method (HCT-116). As to conditions: Homo sapiens, CCK8, 96 h. It is filed as cell-based.
Text: as §1, §2, §3, §4

Assay [5] deals with BT-549 cells. As to the kind of experiment: Detection of cell proliferation activity by CCK8 method (BT-549). It is filed as cell-based. As to conditions: Homo sapiens, CCK8, 96 h.
Text: as §1, §2, §3, §4

For assay [6], the system named is HT-29 cells. Description: Mitotic index analysis, pH3 expression in HT-29 cells. It counts as cell-based, human. As to conditions: Homo sapiens, 24 h treatment. How it is done: as §5

As for `O=C(Nc1cc2nccnc2c(N2CCC(F)(F)CC2)n1)c1ccc(NS(=O)(=O)CCO)cc1N1CCC2(CC1)CC2` [Compound 39], the half-maximal inhibitory concentration (IC50) was 28.1 nM in assay [1], 10.1 nM in assay [3], above 10000 nM in assay [4] and 26.6 nM in assay [5]. This molecule also registered a concentration for a half-maximal effect (EC50) in assay [2] above 10000 nM.
As to `CS(=O)(=O)Nc1ccc(C(=O)Nc2cc3nn[nH]c3c(N3CCC(F)(F)CC3)n2)c(N2CC3CCC(C3)C2)c1` [Compound 66], the values for the concentration for a half-maximal effect (EC50) in assay [6] and in assay [2] were 34.5 nM and above 10000 nM, respectively. The IC50 was 71.5 nM in assay [1], 18.6 nM in assay [3], above 10000 nM in assay [4] and 90.1 nM in assay [5].
On to `CS(=O)(=O)Nc1ccc(C(=O)Nc2cn3cnnc3c(N3CCC(F)(F)CC3)n2)c(N2CCC3(CC2)CC3)c1` [Compound 61], for which the concentration for a half-maximal effect (EC50) in assay [6] was 52.6 nM; in assay [2], above 10000 nM. The half-inhibitory concentration (IC50) was 59.6 nM in assay [1], 23.2 nM in assay [3], above 10000 nM in assay [4] and 30.9 nM in assay [5].
On to `O=C(Nc1cn2cncc2c(N2CCC(F)(F)CC2)n1)c1ccc(NS(=O)(=O)CCO)cc1N1CC2CCC(C2)C1` [Compound 59], for which the EC50 was 49.1 nM in assay [6] and above 10000 nM in assay [2]. In addition, the IC50 was 81.6 nM in assay [1], 27.5 nM in assay [3], above 10000 nM in assay [4] and 83 nM in assay [5].
Regarding `O=C(Nc1cn2ncnc2c(N2CCC(F)(F)CC2)n1)c1ccc(NS(=O)(=O)CCO)cc1N1CC2CCC(C2)C1` [Compound 54], the EC50 in assay [6] was 10.8 nM; in assay [2], above 10000 nM. Moreover, the IC50 is 26.7 nM in assay [1], 11.7 nM in assay [3], above 10000 nM in assay [4] and 54.7 nM in assay [5].
Consider `CS(=O)(=O)Nc1ccc(C(=O)Nc2cn3cncc3c(N3CCC(F)(F)CC3)n2)c(N2CC3CCC(C3)C2)c1` [Compound 60], for which the EC50 was 124 nM in assay [6] and above 10000 nM in assay [2]. In addition, the IC50 is 144 nM in assay [1], 63.2 nM in assay [3], above 10000 nM in assay [4] and 240 nM in assay [5].
For the molecule `O=C(Nc1cc2cc[nH]c2c(N2CCC(F)(F)CC2)n1)c1ccc(NS(=O)(=O)CCO)cc1N1CC2CCC(C2)C1` [Compound 62], the EC50 in assay [6] is 7.7 nM; in assay [2], above 10000 nM. The IC50 in assay [1] is 15.1 nM; in assay [3], 6 nM; in assay [4], above 10000 nM; in assay [5] it was 23.1 nM.
On to `O=C(Nc1cc2nn[nH]c2c(N2CCC(F)(F)CC2)n1)c1ccc(NS(=O)(=O)CCO)cc1N1CC2CCC(C2)C1` [Compound 67], for which the half-maximal effective concentration (EC50) in assay [6] is 36.1 nM; in assay [2] it was above 10000 nM. For the same molecule, the IC50 in assay [1] is 88.1 nM; in assay [3] it was 13.9 nM; in assay [4], above 10000 nM; in assay [5] it was 61.8 nM.
As for `CS(=O)(=O)Nc1ccc(C(=O)Nc2cc3cc[nH]c3c(N3CCC(F)(F)CC3)n2)c(N2CC3CCC(C3)C2)c1` [Compound 63], the concentration for a half-maximal effect (EC50) in assay [6] was 10.3 nM; in assay [2], above 10000 nM. The 50% inhibitory concentration (IC50) is 15.6 nM in assay [1], 10.1 nM in assay [3], above 10000 nM in assay [4] and 33.7 nM in assay [5].
For `CS(=O)(=O)Nc1ccc(C(=O)Nc2cc3ccsc3c(N3CCC(F)(F)CC3)n2)c(N2CCC3(CC2)CC3)c1` [Compound 45], the 50% effective concentration (EC50) in assay [6] was 80.8 nM; in assay [2], above 10000 nM. In addition, the half-maximal inhibitory concentration (IC50) is 94 nM in assay [1], 54.3 nM in assay [3], above 10000 nM in assay [4] and 170 nM in assay [5].
For the molecule `CS(=O)(=O)Nc1ccc(C(=O)Nc2cc3nn[nH]c3c(N3CCC(F)(F)CC3)n2)c(N2CCC3(CC2)CC3)c1` [Compound 68], the EC50 in assay [6] is 90.1 nM; in assay [2] it was above 10000 nM. The IC50 in assay [1] is 157 nM; in assay [3], 43.4 nM; in assay [4], above 10000 nM; in assay [5] it was 90.9 nM.
As to `Cc1cnc2c(N3CCC(F)(F)CC3)nc(NC(=O)c3ccc(NS(=O)(=O)CCO)cc3N3CCC4(CC3)CC4)cn12` [Compound 42], the results for the EC50 in assay [6] and in assay [2] were 255 nM and above 10000 nM, respectively. Also, the IC50 in assay [1] is 229 nM; in assay [3], 83.2 nM; in assay [4], above 10000 nM; in assay [5], 304 nM.
Take `O=C(Nc1cn2cnnc2c(N2CCC(F)(F)CC2)n1)c1ccc(NS(=O)(=O)CCO)cc1N1CC2CCC(C2)C1` [Compound 64]: the half-maximal effective concentration (EC50) is 26.8 nM in assay [6] and above 10000 nM in assay [2]. Further, the half-maximal inhibitory concentration (IC50) in assay [1] is 55.2 nM; in assay [3], 10.2 nM; in assay [4], above 10000 nM; in assay [5], 42.4 nM.
On to `Cn1ncc2cc(NC(=O)c3ccc(NS(C)(=O)=O)cc3N3CCC4(CC3)CC4)nc(N3CCC(F)(F)CC3)c21` [Compound 48], for which the half-maximal effective concentration (EC50) in assay [6] is 12.2 nM; in assay [2], above 10000 nM. For the same molecule, the concentration for half-maximal inhibition (IC50) in assay [1] is 17.1 nM; in assay [3], 12.2 nM; in assay [4], above 10000 nM; in assay [5], 26.3 nM.
In the case of `O=C(Nc1cc2ccsc2c(N2CCC(F)(F)CC2)n1)c1ccc(NS(=O)(=O)CCO)cc1N1CC2CCC(C2)C1` [Compound 50], the EC50 was 31.5 nM in assay [6] and above 10000 nM in assay [2]. In addition, the IC50 in assay [1] was 55.5 nM; in assay [3], 51.9 nM; in assay [4], above 10000 nM; in assay [5], 175 nM.
`O=C(Nc1cn2cc(C(F)(F)F)nc2c(N2CCC(F)(F)CC2)n1)c1ccc(NS(=O)(=O)CCO)cc1N1CCC2(CC1)CC2` [Compound 36]: the IC50 was 520 nM in assay [1], 283 nM in assay [3], above 10000 nM in assay [4] and 1600 nM in assay [5]. In assay [2], this molecule yielded a concentration for a half-maximal effect (EC50) above 10000 nM.
Regarding `O=C(Nc1cn2c(C(F)(F)F)cnc2c(N2CCC(F)(F)CC2)n1)c1ccc(NS(=O)(=O)CCO)cc1N1CCC2(CC1)CC2` [Compound 35], the EC50 in assay [2] is above 10000 nM. For the same molecule, the IC50 was 1850 nM in assay [3] and above 10000 nM in assay [4].
As to `CS(=O)(=O)c1ccc(C(=O)Nc2cn3ccnc3c(N3CCC(F)(F)CC3)n2)c(N2CCC3(CC2)CC3)c1` [Compound 74], the IC50 in assay [1] was determined as 82.4 nM; in assay [3], 47.9 nM; in assay [5], 156 nM.
As for `CS(=O)(=O)Nc1ccc(C(=O)Nc2cn3cncc3c(N3CCC(F)(F)CC3)n2)c(N2CCC3(CC2)CC3)c1` [Compound 58], the EC50 in assay [6] is 119 nM; in assay [2], above 10000 nM. In addition, the half-inhibitory concentration (IC50) in assay [1] was 97.1 nM; in assay [3], 37.9 nM; in assay [4], above 10000 nM; in assay [5] it was 90.4 nM.
Take `CC1(C)C2CN(c3cc(NS(=O)(=O)CCO)ccc3C(=O)Nc3cn4ccnc4c(N4CCC(F)(F)CC4)n3)CC21` (stereo not drawn) [Compound 20]: the EC50 in assay [6] was 434 nM; in assay [2], above 10000 nM. Moreover, the half-inhibitory concentration (IC50) in assay [1] is 518 nM; in assay [3], 117 nM; in assay [4] it was above 10000 nM; in assay [5] it was 736 nM.
Take `Cc1cc(NC(=O)c2ccc(NS(=O)(=O)CCO)cc2N2Cc3ccccc3C2)nc(N2CCC(F)(F)CC2)n1` [Compound 44]: the IC50 is 1640 nM in assay [1], 733 nM in assay [3], above 10000 nM in assay [4] and 1900 nM in assay [5]. Also, the concentration giving a half-maximal response (EC50) in assay [2] was above 10000 nM.

The record behind these values is patent US20250382298A1, “NITROGEN-CONTAINING COMPOUND AND USE THEREOF” (SUZHOU GENHOUSE BIO CO., LTD., priority 2022, published 2025).
